Experiments:
p-Akt S473 = assay: western blotting of p-Akt in BTICs; format: cell-based, human
Method: (§1) BTIC spheres were enzymatically dissociated as described above and plated at 10^6 cells/2 mL of media. Cells were treated with vehicle (DMSO), pacritinib, TMZ, or a combination of pacritinib and TMZ and pelleted at select time points (3, 24, and 48 hours). For protein extraction, BTICs were lysed in modified radio-immunoprecipitation assay buffer supplemented with Complete Mini protease (Roche) and Halt phosphatase (Thermo Scientific) inhibitor cocktails. […] Blots were stained with primary antibodies followed by horseradish peroxidase-conjugated secondary antibodies. […] Cell Signaling Technology), STAT3 (1:1000; Cell Signaling Technology), p-Akt S473 (1:1000; Cell Signaling Technology), Akt (1:1000; Cell Signaling Technology), p-p44/42 MAPK (T202/Y204) (1:1000; Cell Signaling Technology), p44/42 MAPK (1:4000; Cell Signaling Technology), poly (ADP-ribose) polymerase (1:1000; Cell Signaling Technology), β-tubulin (1:1000; Cell Signaling Technology), and Actin (1:1000; Santa Cruz Biotechnology). Secondary antibodies included donkey anti-mouse (1:5000; Cell Signaling Technology), donkey anti-goat (1:5000; Millipore), and goat anti-rabbit (1:5000; Cell Signaling Technology). […] Bands were visualized with the SuperSignal West Pico chemiluminescent solution (Thermo Scientific) and an Amersham™ Imager 600 (General Electric).

in vitro = in vitro ADME, mouse; conditions: mouse liver microsomes, 30-minute incubation; for % Remaining: 1 μM
Method: Working stocks were initially diluted to a concentration of 40 μM in 0.1 M potassium phosphate buffer before addition to the reaction vials. Pooled mouse (CD-1, male) or human (50 donors) liver microsomes were utilized at a final concentration of 0.5 mg/mL. Duplicate wells were used for each time point (0 and 30 minutes). Reactions were carried out at 37°C in a shaker, and the final concentration of DMSO was kept constant at 0.01%. The final volume for each reaction was 100 μL, which included the addition of an NADPH-Regeneration solution (NRS) mix. The NRS mix was comprised of glucose 6-phosphate dehydrogenase (0.4 U/mL), NADP+ (1.3 mM), MgCl2 (3.3 mM), and glucose 6-phosphate (3.3 mM) in assay mixtures. Upon completion of the 30-minute time point, reactions were terminated by the addition of 1.5-volumes (150 μL) of ice-cold acetonitrile with 0.5% formic acid and internal standard. Samples were then centrifuged at 4,000 rpm for 10 minutes to remove debris and precipitated protein. Approximately 150 μL of supernatant was subsequently transferred to a new 96-well microplate for LC-MS analysis. Narrow-window mass extraction LC-MS analysis was performed for all samples using a Waters Xevo quadrupole time-of-flight (QToF) mass spectrometer and an ACQUITY UPLC system, to determine relative peak areas of parent compound.

[1] = system: BT53 orthotopic xenograft; assay: Kaplan-Meier survival, orthotopic BT53 xenograft; format: in vivo, mice; conditions: BT53 xenografted mice, 100 mg/kg pacritinib, three weeks; p < 0.7237 log-rank
Method: For Kaplan-Meier survival studies, BTIC spheres from BT53 or BT147 were dissociated to a single-cell suspension. Mice were anaesthetized using 10 mg/kg ketamine/xylazine. Buprenorphine (0.05 mg/kg) was administered once pre-operatively and once post-operatively to minimize animal suffering. 5 x 10^4 cells were stereotactically implanted into the right striata of 8- to 10-week-old female severe combined immunodeficient (SCID) mice, as previously described and approved by the University of Calgary Health Sciences Animal Care Committee, accredited by CCAC. Mice were randomized to vehicle or treatment cohorts, with a minimum of 8 mice per group, one week after cell implantation. For BT147, vehicle (Ora-Plus; Galenova), pacritinib (100 mg/kg), TMZ (30 mg/kg), or a combination of pacritinib (100 mg/kg) and TMZ (30 mg/kg), were administered via oral gavage. Animals completed a five-week regimen of three weekly treatments for a total of 15 treatments. For BT53, 100 mg/kg of pacritinib was administered twice per day alone or in combination with 50 mg/kg TMZ once per day, for one week via oral gavage. Following this, mice received 100 mg/kg pacritinib twice per day in combination with 10 mg/kg TMZ once per day for two weeks. […] The body weights were closely monitored throughout the course of the experiment. […]

BT53 = assay: alamarBlue BTIC viability assay, BT53; conditions: Homo sapiens, read-out: IC50 (viability)
Method: Accumax (eBioscience) was used to enzymatically dissociate BTIC spheres to single cells. Cells were seeded at 1000 cells per well in 96-well plates and treated with vehicle (DMSO) or drug, 24 hours after plating. BTIC viability was assessed after 7–14 days, once spheres were formed in control wells, by performing the alamarBlue™ (Invitrogen) assay per the manufacturer’s instructions. In brief, the alamar dye was added to each well and plates were read 6 hours later. Fluorescence intensity (excitation 540 nm; emission 590 nm) was measured on a SpectraMax M Series Multi-Mode Microplate reader. […] All experiments were performed in triplicate with a minimum of 3 wells per condition.
BTICs were treated with suboptimal doses of 1 μM pacritinib (CTI Biopharma), 10 μg/mL TMZ (Sigma), or a combination of pacritinib and TMZ. […] Percent inhibition was determined by normalizing each well to the control well (0.1% DMSO).

[2] = system: BT147 orthotopic xenograft; assay: Kaplan-Meier survival, orthotopic BT147 xenograft; format: in vivo; conditions: BT147 xenografted mice
Method: For Kaplan-Meier survival studies, BTIC spheres from BT53 or BT147 were dissociated to a single-cell suspension. Mice were anaesthetized using 10 mg/kg ketamine/xylazine. Buprenorphine (0.05 mg/kg) was administered once pre-operatively and once post-operatively to minimize animal suffering. 5 x 10^4 cells were stereotactically implanted into the right striata of 8- to 10-week-old female severe combined immunodeficient (SCID) mice, as previously described and approved by the University of Calgary Health Sciences Animal Care Committee, accredited by CCAC. Mice were randomized to vehicle or treatment cohorts, with a minimum of 8 mice per group, one week after cell implantation. For BT147, vehicle (Ora-Plus; Galenova), pacritinib (100 mg/kg), TMZ (30 mg/kg), or a combination of pacritinib (100 mg/kg) and TMZ (30 mg/kg), were administered via oral gavage. Animals completed a five-week regimen of three weekly treatments for a total of 15 treatments. For BT53, 100 mg/kg of pacritinib was administered twice per day alone or in combination with 50 mg/kg TMZ once per day, for one week via oral gavage. Following this, mice received 100 mg/kg pacritinib twice per day in combination with 10 mg/kg TMZ once per day for two weeks. Mice were euthanized with a lethal dose of sodium pentobarbital at a pre-defined humane endpoint. Specific criteria for the endpoint included: 20% weight loss, lack of grooming, inactivity, hind limb paralysis, and/or inability to eat or drink. The body weights were closely monitored throughout the course of the experiment. […] The presence of tumor was confirmed in the mice via necropsy and cranial dissection.

BT69 = assay: alamarBlue BTIC viability assay, BT69; format: cell-based; conditions: Homo sapiens; BTIC line BT69, alamarBlue
BT189 = assay: alamarBlue BTIC viability assay, BT189; format: cell-based; conditions: Homo sapiens; BTIC line BT189, alamarBlue
[3] = system: BT206 orthotopic xenograft; assay: Kaplan-Meier survival, orthotopic BT206 xenograft; format: in vivo; conditions: BT206 xenografted mice; p < 0.0968 log-rank
BT143 = assay: alamarBlue BTIC viability assay, BT143; format: cell-based; conditions: Homo sapiens; BTIC line BT143, alamarBlue
cleaved PARP = assay: western blotting of cleaved PARP in BTICs; format: cell-based, human; conditions: BT69, 24 hours
Method: as §1

[4] = system: p-p44/42 MAPK (T202/Y204); assay: western blotting of p-p44/42 MAPK in BTICs; format: cell-based, human
Method: as §1

BT147 = assay: neurosphere assay, BT147; format: cell-based, human; conditions: 3 μM
BT68 = assay: alamarBlue BTIC viability assay, BT68; format: cell-based; conditions: Homo sapiens; BTIC line BT68, alamarBlue
[5] = system: patient-derived GBM BTIC cultures; assay: neurosphere assay, all BTIC cultures tested; format: cell-based, human; conditions: 5 μM
BT124 = assay: alamarBlue BTIC viability assay, BT124; format: cell-based; conditions: Homo sapiens; BTIC line BT124, alamarBlue
[6] = BT147 and BT53, low micromolar concentrations, 3 hours

C1=C/COCc2cc(ccc2OCCN2CCCC2)Nc2nccc(n2)-c2cccc(c2)COC/1 [pacritinib]
p-Akt S473 (p-Akt S473; BT147 and BT53, 5 and 10 μM): decreased | phosphorylation of AKT S473 (p-Akt S473; [6]): unchanged levels of phosphorylation | stability rating (in vitro): Unstable | % Remaining (in vitro): < 1% | % Remaining (in vitro; listed as Pacritinib (run 1)): 0.3% | % Remaining (in vitro; listed as Pacritinib (run 2)): 0.6% | survival advantage, single agent [1]: failed to provide a survival advantage | IC50 (BT53): 920 nM | survival advantage, single agent ([2]; 100 mg/kg pacritinib, p < 0.4649 log-rank): no survival advantage | median survival ([2]; pacritinib 100 mg/kg, TMZ 30 mg/kg, oral, thrice weekly for five weeks, control 52 days): 48 days | IC50 (BT69): 1260 nM | IC50 (BT189): 1010 nM | efficacy of treatment alone (Kaplan-Meier survival) [3]: no efficacy | IC50 (BT143): 1360 nM | cell death (cleaved PARP levels) (cleaved PARP): increase in cleaved PARP levels | p-p44/42 MAPK ([4]; BT53, 5 and 10 μM): decreased p-p44/42 MAPK | phosphorylation of p44/42 MAPK (T202/Y204) [4, 6]: unchanged levels of phosphorylation | sphere formation (BT147): completely abolished sphere formation | IC50 (BT68): 1220 nM | sphere formation [5]: completely inhibit sphere formation | IC50 (BT124): 1330 nM

— article PMC5734728, “The JAK2/STAT3 inhibitor pacritinib effectively inhibits patient-derived GBM brain tumor initiating cells in vitro and when used in combination with temozolomide increases survival in an orthotopic xenograft model” (PLoS ONE, 2017)
